Consider 26 compounds from patent US10100058B2, “Fused heterocyclic compounds as CaM kinase inhibitors” (Gilead Sciences, Inc., priority 2016, dated 2018).

In the experiment the target is recombinant CaMKIIδ (Homo sapiens (Human), UniProt Q13557). As to the kind of experiment: CaMKIIδ biochemical assay (HTRF). As to conditions: 10 pM CaMKIIδ, 110 nM calmodulin, 12 μM ATP, 1 hour; read-out: CAMKIID-HTRF-384V2 (IC50 - nM). The protocol: CaMKIIδ Biochemical Assay
The biochemical activity of recombinant CaMKIIδ was measured by monitoring the phosphorylation of a target peptide using Homogenous Time Resolved Fluorescence (HTRF) technology from CisBio Bioassays.
For orientation: In TR-FRET formats the signal depends on donor and acceptor labels being close together.
For `CCN(CC)[C@@H](C)CNC(=O)c1cc(-c2cnn3ccc(-c4cccs4)nc23)nc(N2CC[C@H]2C(=O)N2CC(OC)C2)c1` [Example 295, N—((S)-2-(diethylamino)propyl)-2-((S)-2-(3-methoxyazetidine-1-carbonyl)azetidin-1-yl)-6-(5-(thiophen-2-yl)pyrazolo[1,5-a]pyrimidin-3-yl)isonicotinamide], the half-inhibitory concentration (IC50) is 0.25 nM.

`CCN(CC)[C@@H](C)CNC(=O)c1cc(-c2cnn3ccc(-c4cccs4)nc23)nc(N2CC[C@H]2C(=O)O)c1` [Example 296, (S)-1-(4-(((S)-2-(diethylamino)propyl)carbamoyl)-6-(5-(thiophen-2-yl)pyrazolo[1,5-a]pyrimidin-3-yl)pyridin-2-yl)azetidine-2-carboxylic Acid]: the 50% inhibitory concentration (IC50) came out at 1.93 nM.

Consider `CCN(CC)[C@@H](C)CNC(=O)c1cc(-c2cnn3ccc(-c4cccs4)nc23)nc(N2CC[C@H]2C(=O)N(C)O)c1` [Example 298, N—((S)-2-(diethylamino)propyl)-2-((S)-2-(hydroxy(methyl)carbamoyl)azetidin-1-yl)-6-(5-(thiophen-2-yl)pyrazolo[1,5-a]pyrimidin-3-yl)isonicotinamide], for which the half-maximal inhibitory concentration (IC50) is 0.23 nM.

Take `CCN(CC)[C@@H](C)CNC(=O)c1cc(-c2cnn3ccc(-c4cccs4)nc23)nc(N2CC[C@H]2C(N)=O)c1` [Example 299, 2-((S)-2-carbamoylazetidin-1-yl)-N—((S)-2-(diethylamino)propyl)-6-(5-(thiophen-2-yl)pyrazolo[1,5-a]pyrimidin-3-yl)isonicotinamide]: the IC50 worked out at 0.22 nM.

As for `CCN(CC)[C@@H](C)CNC(=O)c1cc(-c2cnn3ccc(-c4cccs4)nc23)nc(N2CC[C@H]2C(=O)NCC#N)c1` [Example 300, 2-((S)-2-((cyanomethyl)carbamoyl)azetidin-1-yl)-N—((S)-2-(diethylamino)propyl)-6-(5-(thiophen-2-yl)pyrazolo[1,5-a]pyrimidin-3-yl)isonicotinamide], the IC50 amounted to 0.58 nM.

In the case of `CCN(CC)[C@@H](C)CNC(=O)c1cc(-c2cnn3ccc(-c4cccs4)nc23)nc(N2CC[C@H]2C(=O)NCCOC)c1` [Example 301, N—((S)-2-(diethylamino)propyl)-2-((S)-2-((2-methoxyethyl)carbamoyl)azetidin-1-yl)-6-(5-(thiophen-2-yl)pyrazolo[1,5-a]pyrimidin-3-yl)isonicotinamide], the 50% inhibitory concentration (IC50) is 0.48 nM.

Turning to `CCN(CC)[C@@H](C)CNC(=O)c1cc(-c2cnn3ccc(-c4cccs4)nc23)nc(N2CC[C@H]2C(=O)N2CC(S(C)(=O)=O)C2)c1` [Example 302, N—((S)-2-(diethylamino)propyl)-2-((S)-2-(3-(methylsulfonyl)azetidine-1-carbonyl)azetidin-1-yl)-6-(5-(thiophen-2-yl)pyrazolo[1,5-a]pyrimidin-3-yl)isonicotinamide], the 50% inhibitory concentration (IC50) is 0.2 nM.

Consider `CCN(CC)[C@@H](C)CNC(=O)c1cc(-c2cnn3ccc(-c4cccs4)nc23)nc(N2CC[C@H]2C(=O)N2CCS(=O)(=O)CC2)c1` [Example 303, N—((S)-2-(diethylamino)propyl)-2-((S)-2-(1,1-dioxidothiomorpholine-4-carbonyl)azetidin-1-yl)-6-(5-(thiophen-2-yl)pyrazolo[1,5-a]pyrimidin-3-yl)isonicotinamide], for which the IC50 is 0.16 nM.

`CCN(CC)[C@@H](C)CNC(=O)c1cc(-c2cnn3ccc(-c4cccs4)nc23)nc(N2CC[C@H]2C(=O)N2CC(O)C2)c1` [Example 304, N—((S)-2-(diethylamino)propyl)-2-((S)-2-(3-hydroxyazetidine-1-carbonyl)azetidin-1-yl)-6-(5-(thiophen-2-yl)pyrazolo[1,5-a]pyrimidin-3-yl)isonicotinamide]: the half-maximal inhibitory concentration (IC50) was 0.17 nM.

Consider `CNC(=O)[C@@H]1CCN1c1cc(C(=O)NC[C@H](C)N)cc(-c2cnn3ccc(-c4cccs4)nc23)n1` [Example 305, N—((S)-2-aminopropyl)-2-((S)-2-(methylcarbamoyl)azetidin-1-yl)-6-(5-(thiophen-2-yl)pyrazolo[1,5-a]pyrimidin-3-yl)isonicotinamide], for which the IC50 is 51.7 nM.

With `CCN[C@@H](C)CNC(=O)c1cc(-c2cnn3ccc(-c4cccs4)nc23)nc(N2CC[C@H]2C(=O)NC)c1` [Example 306, N—((S)-2-(ethylamino)propyl)-2-((S)-2-(methylcarbamoyl)azetidin-1-yl)-6-(5-(thiophen-2-yl)pyrazolo[1,5-a]pyrimidin-3-yl)isonicotinamide], the IC50 turned out to be 10.6 nM.

`CCN(CC)[C@@H](C)CNC(=O)c1cc(-c2cnn3ccc(-c4ccns4)nc23)nc(N2CC[C@H]2C(=O)NC)c1` [Example 307, N—((S)-2-(diethylamino)propyl)-2-(5-(isothiazol-5-yl)pyrazolo[1,5-a]pyrimidin-3-yl)-6-((S)-2-(methylcarbamoyl)azetidin-1-yl)isonicotinamide]: the half-maximal inhibitory concentration (IC50) stood at 0.27 nM.

Regarding `CCN(CC)[C@@H](C)CNC(=O)c1cc(-c2cnn3ccc(-c4cccs4)nc23)nc(N2CC[C@H]2c2nc(C)no2)c1` [Example 308, N—((S)-2-(diethylamino)propyl)-2-((S)-2-(3-methyl-1,2,4-oxadiazol-5-yl)azetidin-1-yl)-6-(5-(thiophen-2-yl)pyrazolo[1,5-a]pyrimidin-3-yl)isonicotinamide], the 50% inhibitory concentration (IC50) is 0.71 nM.

As for `CCN(CC)[C@@H](C)CNC(=O)c1cc(-c2cnn3ccc(-c4ccccc4)nc23)nc(N2CC[C@H]2C(=O)NC)c1` [Example 309, N—((S)-2-(diethylamino)propyl)-2-((S)-2-(methylcarbamoyl)azetidin-1-yl)-6-(5-phenylpyrazolo[1,5-a]pyrimidin-3-yl)isonicotinamide], the IC50 was 2.16 nM.

`CCN(CC)[C@@H](C)CNC(=O)c1cc(-c2cnn3ccc(-c4cccs4)nc23)nc(N2CC[C@H](C(=O)NC)C2)c1` [Example 310, N—((S)-2-(diethylamino)propyl)-2-((S)-3-(methylcarbamoyl)pyrrolidin-1-yl)-6-(5-(thiophen-2-yl)pyrazolo[1,5-a]pyrimidin-3-yl)isonicotinamide]: the IC50 stood at 0.25 nM.

`CCN(CC)[C@@H](C)CNC(=O)c1cc(-c2cnn3ccc(-c4cccs4)nc23)nc(N2CC[C@@H](C(=O)NC)C2)c1` [Example 311, N—((S)-2-(diethylamino)propyl)-2-((R)-3-(methylcarbamoyl)pyrrolidin-1-yl)-6-(5-(thiophen-2-yl)pyrazolo[1,5-a]pyrimidin-3-yl)isonicotinamide]: the concentration for half-maximal inhibition (IC50) came out at 0.23 nM.

With `CCN(CC)[C@@H](C)CNC(=O)c1cc(-c2cnn3ccc(-c4cccs4)nc23)nc(N2CC[C@@H](C#N)C2)c1` [Example 312, 2-((R)-3-cyanopyrrolidin-1-yl)-N—((S)-2-(diethylamino)propyl)-6-(5-(thiophen-2-yl)pyrazolo[1,5-a]pyrimidin-3-yl)isonicotinamide], the IC50 worked out at 0.21 nM.

`CCN(CC)[C@@H](C)CNC(=O)c1cc(-c2cnn3ccc(-c4cccs4)nc23)nc(N2CCNC(=O)C2)c1` [Example 314, (S)—N-(2-(diethylamino)propyl)-2-(3-oxopiperazin-1-yl)-6-(5-(thiophen-2-yl)pyrazolo[1,5-a]pyrimidin-3-yl)isonicotinamide]: the IC50 turned out to be 0.14 nM.

`CCN(CC)[C@@H](C)CNC(=O)c1cc(-c2cnn3ccc(-c4cccs4)nc23)nc(N2CC[C@H](N)C2)c1` [Example 317, 2-((S)-3-aminopyrrolidin-1-yl)-N—((S)-2-(diethylamino)propyl)-6-(5-(thiophen-2-yl)pyrazolo[1,5-a]pyrimidin-3-yl)isonicotinamide]: the IC50 is 0.07 nM.

As for `CCN(CC)[C@@H](C)CNC(=O)c1cc(-c2cnn3ccc(-c4cccs4)nc23)nc(N2CC[C@@H](N)C2)c1` [Example 318, 2-((R)-3-aminopyrrolidin-1-yl)-N—((S)-2-(diethylamino)propyl)-6-(5-(thiophen-2-yl)pyrazolo[1,5-a]pyrimidin-3-yl)isonicotinamide], the IC50 came to 0.05 nM.

`CCN(CC)[C@@H](C)CNC(=O)c1cc(-c2cnn3ccc(-c4cccs4)nc23)nc(N2CCC[C@H]2C(=O)NC)c1` [Example 319, N—((S)-2-(diethylamino)propyl)-2-((S)-2-(methylcarbamoyl)pyrrolidin-1-yl)-6-(5-(thiophen-2-yl)pyrazolo[1,5-a]pyrimidin-3-yl)isonicotinamide]: the concentration for half-maximal inhibition (IC50) was 3.02 nM.

On to `CCN(CC)[C@@H](C)CNC(=O)c1cc(-c2cnn3ccc(-c4cccs4)nc23)nc(N2CCC[C@@H]2C(=O)NC)c1` [Example 320, N—((S)-2-(diethylamino)propyl)-2-((R)-2-(methylcarbamoyl)pyrrolidin-1-yl)-6-(5-(thiophen-2-yl)pyrazolo[1,5-a]pyrimidin-3-yl)isonicotinamide], for which the IC50 amounted to 32.8 nM.

Take `CC(C)(O)CNc1cc(C(=O)N2CC3CCC(C2)NC3)cc(-c2cnn3ccc(-c4cccs4)nc23)n1` (centres unmarked) [Example 322, (-3,6-diazabicyclo[3.2.2]nonan-3-yl)(2-((2-hydroxy-2-methylpropyl)amino)-6-(5-(thiophen-2-yl)pyrazolo[1,5-a]pyrimidin-3-yl)pyridin-4-yl)methanone]: the IC50 was found to be 5.01 nM.

Turning to `COCCNc1cc(C(=O)N2CC3CCC(C2)NC3)cc(-c2cnn3ccc(-c4cccs4)nc23)n1` (centres unmarked) [Example 323, (-3,6-diazabicyclo[3.2.2]nonan-3-yl)(2-((2-methoxyethyl)amino)-6-(5-(thiophen-2-yl)pyrazolo[1,5-a]pyrimidin-3-yl)pyridin-4-yl)methanone], the half-maximal inhibitory concentration (IC50) was 3.22 nM.

On to `O=C(c1cc(-c2cnn3ccc(-c4cccs4)nc23)nc(N2CCN(C3COC3)CC2)c1)N1CC2CCC(C1)NC2` (centres unmarked) [Example 324, (-3,6-diazabicyclo[3.2.2]nonan-3-yl)(2-(4-(oxetan-3-yl)piperazin-1-yl)-6-(5-(thiophen-2-yl)pyrazolo[1,5-a]pyrimidin-3-yl)pyridin-4-yl)methanone], for which the IC50 amounted to 3.59 nM.

Regarding `COC1CN(c2cc(C(=O)N3CC4CCC(C3)NC4)cc(-c3cnn4ccc(-c5cccs5)nc34)n2)C1` (centres unmarked) [Example 325, (-3,6-diazabicyclo[3.2.2]nonan-3-yl)(2-(3-methoxyazetidin-1-yl)-6-(5-(thiophen-2-yl)pyrazolo[1,5-a]pyrimidin-3-yl)pyridin-4-yl)methanone], the IC50 turned out to be 2.19 nM.

The IC50 is the concentration needed to halve the response being measured.
